Experimental data published in US8394829B2, “Bi-functional quinoline analogs” (Gilead Sciences, Inc., priority 2010, dated 2013).

Assays:
[1] = biological target: T1, human recombinant beta-2 adrenoreceptors (Homo sapiens, UniProt P07550); experiment: Functional agonism of human recombinant beta-2 adrenoreceptors expressed in CHO cells (cAMP HTRF); assay type: cell-based; conditions: CHO cells expressing human beta-2 adrenoreceptors, cAMP elevation, 30 min
T1 construct: expressed in transfected cells; host or cells: CHO cells
In short: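 CHO cells expressing recombinant receptor incubated with compound for 30 min; intracellular cAMP rise over control read by HTRF. EC50 taken as concentration giving 50% of that compound's own maximal response, with full or partial agonism judged against isoproterenol maximum.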

[2] = biological target: T1, human recombinant beta-2 adrenoreceptors; experiment: Beta-2 adrenoceptor binding assay ([3H](−)CGP-12177 displacement); conditions: CHO cells expressing human beta-2 adrenoreceptors, [3H](−)CGP-12177 0.3 nM, 120 min
In short: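 Displacement of [3H](−)CGP-12177 (0.3 nM) from human recombinant beta-2 receptors expressed in CHO cells, measured after 120 min incubation with test compound. Bound radioligand counted by scintillation; IC50 taken from concentration-response curves as 50% of each compound's maximal inhibition.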

[3] = test system: LPS-induced TNF-α release from human peripheral blood mononuclear cells (PBMC); experiment: Inhibition of LPS-induced TNF-α release from human PBMC; assay type: cell-based; conditions: LPS 0.4 ng/mL, 6 h, presence or absence of ICI-118551 not given
In short: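 Ficoll-purified primary PBMC, 100,000 cells/well, pre-incubated 30 min ± 10 μM ICI-118551 (± gives PDE4-only vs PDE4 plus beta-2 activity), then compound 1 h at 37 °C (0.1% DMSO). Stimulated with 0.4 ng/mL LPS for 6 h; supernatant TNF-α by bead cytokine assay; IC50 from single-site fit.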

Human recombinant PDE4B2 = biological target: T2, Human recombinant PDE4B2 (Homo sapiens, UniProt Q07343); experiment: Inhibition of PDE4B4 enzyme activity (PDE Glo Assay); assay type: biochemical; conditions: human recombinant PDE4B2, 50 nM cAMP; read-out: PDE4 IC50
T2 construct: purchased BPS Bioscience
In short: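 Human recombinant PDE4B2 (0.12 nM) was pre-incubated with compound for 10 min at rt, then 50 nM cAMP was added for 1 hr. After IBMX stop and PKA detection, read-out was Kinase-Glo luminescence. IC50 came from a single-site nonlinear fit of RLU versus concentration.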

T1 sequence (P07550 whole entry): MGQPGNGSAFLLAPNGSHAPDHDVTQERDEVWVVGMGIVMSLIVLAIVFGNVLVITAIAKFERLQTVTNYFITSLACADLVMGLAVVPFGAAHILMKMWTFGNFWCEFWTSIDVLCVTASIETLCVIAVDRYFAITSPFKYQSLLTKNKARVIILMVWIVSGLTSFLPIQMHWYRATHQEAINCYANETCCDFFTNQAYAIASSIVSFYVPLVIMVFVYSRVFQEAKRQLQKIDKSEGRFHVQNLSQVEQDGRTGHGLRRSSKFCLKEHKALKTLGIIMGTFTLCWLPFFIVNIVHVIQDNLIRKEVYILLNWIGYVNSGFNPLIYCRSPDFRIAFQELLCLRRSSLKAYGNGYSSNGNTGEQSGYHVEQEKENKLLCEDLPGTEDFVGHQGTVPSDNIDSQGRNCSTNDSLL
T2 sequence (Q07343 1-564 isoform Q07343-2): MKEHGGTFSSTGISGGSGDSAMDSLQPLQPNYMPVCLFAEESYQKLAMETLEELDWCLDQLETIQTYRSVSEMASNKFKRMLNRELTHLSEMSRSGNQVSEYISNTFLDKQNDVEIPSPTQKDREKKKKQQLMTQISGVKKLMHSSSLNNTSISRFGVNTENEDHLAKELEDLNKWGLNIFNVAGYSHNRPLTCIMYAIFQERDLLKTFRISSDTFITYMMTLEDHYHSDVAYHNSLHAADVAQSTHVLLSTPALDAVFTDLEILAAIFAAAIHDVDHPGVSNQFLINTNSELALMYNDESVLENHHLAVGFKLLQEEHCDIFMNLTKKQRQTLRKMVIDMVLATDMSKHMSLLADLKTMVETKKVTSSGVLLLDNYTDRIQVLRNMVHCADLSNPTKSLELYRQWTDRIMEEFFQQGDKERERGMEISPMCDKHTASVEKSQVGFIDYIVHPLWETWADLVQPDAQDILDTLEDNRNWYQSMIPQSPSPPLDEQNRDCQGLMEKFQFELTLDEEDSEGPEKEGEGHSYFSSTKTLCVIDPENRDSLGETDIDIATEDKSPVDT

EC50 [1] [µM]	IC50 [2] [µM]	IC50 (Human recombinant PDE4B2) [µM]	SMILES	EC50 [3] [µM]
< 0.3	< 0.3	< 0.1	COc1cccc(Nc2c(C(N)=O)cnc3c(C)cc(S(=O)(=O)c4cccc(C(=O)Nc5ccc(C#CCCCNC[C@H](O)c6ccc(O)c(NC=O)c6)cc5)c4)cc23)c1 [Example 31, (R)-6-[[3-[[4-[5-[[2-(3-Formamido-4-hydroxyphenyl)-2-hydroxyethyl]amino]pent-1-ynyl]phenyl]carbamoyl]phenyl]sulfonyl]-4-[(3-methoxyphenyl)amino]-8-methylquinoline-3-carboxamide]	< 0.1
< 0.1	< 0.1	< 0.1	COc1cccc(Nc2c(C(N)=O)cnc3c(C)cc(S(=O)(=O)c4cccc(C(=O)Nc5ccc(CCOCCCCCCNC[C@H](O)c6ccc(O)c7[nH]c(=O)ccc67)cc5)c4)cc23)c1 [Example 39, (R)-6-((3-((4-(2-((6-((2-hydroxy-2-(8-hydroxy-2-oxo-1,2-dihydroquinolin-5-yl)ethyl)amino)hexyl)oxy)ethyl)phenyl)carbamoyl)phenyl)sulfonyl)-4-((3-methoxyphenyl)amino)-8-methylquinoline-3-carboxamide]	< 0.1
< 0.1	< 0.1	< 0.1	COc1cccc(Nc2c(C(N)=O)cnc3c(C)cc(S(=O)(=O)c4cccc(C(=O)NCCCCCCCCNC[C@H](O)c5ccc(O)c6[nH]c(=O)ccc56)c4)cc23)c1 [Example 1, (R)-6-[[3-[[8-[[2-Hydroxy-2-(8-hydroxy-2-oxo-1,2-dihydroquinolin-5-yl)ethyl]amino]octyl]carbamoyl]phenyl]sulfonyl]-4-[(3-methoxyphenyl)amino]-8-methylquinoline-3-carboxamide]	< 0.1
< 0.1	< 0.1	< 0.1	COc1cccc(Nc2c(C(N)=O)cnc3c(C)cc(S(=O)(=O)c4cccc(C(=O)Nc5ccc(CCCCOCCCCCCNC[C@H](O)c6ccc(O)c7[nH]c(=O)ccc67)cc5)c4)cc23)c1 [Example 38, (R)-6-((3-((4-(4-((6-((2-hydroxy-2-(8-hydroxy-2-oxo-1,2-dihydroquinolin-5-yl)ethyl)amino)hexyl)oxy)butyl)phenyl)carbamoyl)phenyl)sulfonyl)-4-((3-methoxyphenyl)amino)-8-methylquinoline-3-carboxamide]	< 0.1
> 0.3	> 0.3	< 0.1	COc1cccc(Nc2c(C(N)=O)cnc3c(C)cc(S(=O)(=O)c4cccc(-c5ccc(CNC[C@H](O)c6ccc(O)c7[nH]c(=O)ccc67)cc5)c4)cc23)c1 [Example 47, (R)-6-((4′-(((2-hydroxy-2-(8-hydroxy-2-oxo-1,2-dihydroquinolin-5-yl)ethyl)amino)methyl)-[1,1′-biphenyl]-3-yl)sulfonyl)-4-((3-methoxyphenyl)amino)-8-methylquinoline-3-carboxamide]	< 0.1
< 0.1	< 0.1	< 0.1	COc1cccc(Nc2c(C(N)=O)cnc3c(C)cc(S(=O)(=O)c4cccc(C(=O)N(C)c5ccc(C#CCCCNC[C@H](O)c6ccc(O)c7[nH]c(=O)ccc67)cc5)c4)cc23)c1 [Example 33, (R)-6-((3-((4-(5-((2-hydroxy-2-(8-hydroxy-2-oxo-1,2-dihydroquinolin-5-yl)ethyl)amino)pent-1-yn-1-yl)phenyl)(methyl)carbamoyl)phenyl)sulfonyl)-4-((3-methoxyphenyl)amino)-8-methylquinoline-3-carboxamide]	< 0.1
< 0.3	> 0.3	< 0.1	COc1cccc(Nc2c(C(N)=O)cnc3c(C)cc(S(=O)(=O)c4cccc(C(=O)N5CCN(CCCCCCNC[C@H](O)c6ccc(O)c7[nH]c(=O)ccc67)CC5)c4)cc23)c1 [Example 16, (R)-6-((3-(4-(6-((2-hydroxy-2-(8-hydroxy-2-oxo-1,2-dihydroquinolin-5-yl)ethyl)amino)hexyl)piperazine-1-carbonyl)phenyl)sulfonyl)-4-((3-methoxyphenyl)amino)-8-methylquinoline-3-carboxamide]	< 0.1
< 0.1	< 0.1	< 0.1	COc1cccc(Nc2c(C(N)=O)cnc3c(C)cc(S(=O)(=O)c4cccc(C(=O)N5CCN(C(=O)c6cccc(CC(C)NC[C@H](O)c7ccc(O)c8[nH]c(=O)ccc78)c6)CC5)c4)cc23)c1 (stereo partly drawn) [Example 17, 6-((3-(4-(3-(2-(((R)-2-hydroxy-2-(8-hydroxy-2-oxo-1,2-dihydroquinolin-5-yl)ethyl)amino)propyl)benzoyl)piperazine-1-carbonyl)phenyl)sulfonyl)-4-((3-methoxyphenyl)amino)-8-methylquinoline-3-carboxamide]	< 0.1
< 0.1	> 0.3	< 0.1	COc1cccc(Nc2c(C(N)=O)cnc3c(C)cc(S(=O)(=O)c4cccc(C(=O)N5CCC(NC[C@H](O)c6ccc(O)c7[nH]c(=O)ccc67)CC5)c4)cc23)c1 [Example 3, (R)-6-[[3-[[4-[[2-Hydroxy-2-(8-hydroxy-2-oxo-1,2-dihydroquinolin-5-yl)ethyl]amino]piperidine-1-yl]carbonyl)phenyl]sulfonyl]-4-[(3-methoxyphenyl)amino]-8-methylquinoline-3-carboxamide]	< 0.1
< 0.1	< 0.1	< 0.1	COc1cccc(Nc2c(C(N)=O)cnc3c(C)cc(S(=O)(=O)c4cccc(C(=O)N5CCN(CCNC[C@H](O)c6ccc(O)c7[nH]c(=O)ccc67)CC5)c4)cc23)c1 [Example 11, 6-[3-[[4-[2-[[2-Hydroxy-2-(8-hydroxy-2-oxo-1,2-dihydroquinolin-5-yl)ethyl]amino]ethyl]piperazine-1-yl]carbonyl]benzenesulfonyl]-4-(3-methoxyphenylamino)-8-methylquinoline-3-carboxyamide]	< 0.1
< 0.1	> 0.3	< 0.1	COc1cccc(Nc2c(C(N)=O)cnc3c(C)cc(S(=O)(=O)c4cccc(C(=O)N(C)CCOc5ccc(CCNC[C@H](O)c6ccc(O)c7[nH]c(=O)ccc67)cc5)c4)cc23)c1 [Example 25, (R)-6-((3-((2-(4-(2-((2-hydroxy-2-(8-hydroxy-2-oxo-1,2-dihydroquinolin-5-yl)ethyl)amino)ethyl)phenoxy)ethyl)(methyl)carbamoyl)phenyl)sulfonyl)-4-((3-methoxyphenyl)amino)-8-methylquinoline-3-carboxamide]	< 0.1
< 0.1	< 0.1	< 0.1	COc1cccc(Nc2c(C(N)=O)cnc3c(C)cc(S(=O)(=O)c4cccc(C(=O)Nc5ccc(-c6ccc(CNC[C@H](O)c7ccc(O)c8[nH]c(=O)ccc78)cc6)cc5)c4)cc23)c1 [Example 20, (R)-6-((3-((4′-(((2-hydroxy-2-(8-hydroxy-2-oxo-1,2-dihydroquinolin-5-yl)ethyl)amino)methyl)-[1,1′-biphenyl]-4-yl)carbamoyl)phenyl)sulfonyl)-4-((3-methoxyphenyl)amino)-8-methylquinoline-3-carboxamide]	< 0.1
< 0.1	< 0.1	< 0.1	COc1cccc(Nc2c(C(N)=O)cnc3c(C)cc(S(=O)(=O)c4cccc(C(=O)Nc5ccc(CCCCCNC[C@H](O)c6ccc(O)c7[nH]c(=O)ccc67)cc5)c4)cc23)c1 [Example 10, (R)-6-[[3-[[4-[5-[[2-Hydroxy-2-(8-hydroxy-2-oxo-1,2-dihydroquinolin-5-yl)ethyl]amino]pentyl]phenyl]carbamoyl]phenyl]sulfonyl]-4-[(3-methoxyphenyl)amino]-8-methylquinoline-3-carboxamide 2,2,2-trifluoroacetate]	< 0.1
< 0.3	< 0.1	< 0.1	COc1cccc(Nc2c(C(N)=O)cnc3c(C)cc(S(=O)(=O)CCCCCCCCCCCNC[C@H](O)c4cc(O)cc5c4OCC(=O)N5)cc23)c1 [Example 46, (R)-6-((11-((2-hydroxy-2-(6-hydroxy-3-oxo-3,4-dihydro-2H-benzo[b][1,4]oxazin-8-yl)ethyl)amino)undecyl)sulfonyl)-4-((3-methoxyphenyl)amino)-8-methylquinoline-3-carboxamide]	< 0.1
